In US10208033B2, “β-carboline, dihydro-β-carboline and tetrahydro-β-carboline alkaloid derivatives and preparation methods same and use in aspects of preventing and treating plant viruses, fungicides and insecticides” (NANKAI UNIVERSITY, priority 2013, dated 2019):
Where a name gives a salt, the structure may show the parent alone. Read-outs that look alike come from different tables or passages of the source.

Tests used:
armyworms = type: in vivo; conditions: concentration 600 mg/kg
Sclerotinia scleotiorum = assay: Fungicidal (bactericidal) activity in vitro, PDA colony diameter; type: cell-based; conditions: 50 mg/kg
Phytophthora capsici = assay: as above; type: cell-based; conditions: 50 mg/kg
[1] = tested on: tobacco mosaic virus (TMV); assay: Anti-TMV in vitro effect (half-leaf soaking); type: cell-based, tobacco mosaic virus (host Nicotiana tabacum L.cv.Xanthi NN)
cucumber fusarium wilt = assay: Fungicidal (bactericidal) activity in vitro, PDA colony diameter; type: cell-based; conditions: 50 mg/kg
Fusarium fujikuroi = assay: as above; type: cell-based; conditions: 50 mg/kg
Bipolaria maydis = assay: organism not typed; type: cell-based; conditions: 50 mg/kg
[2] = tested on: tobacco mosaic virus (TMV); assay: Anti-TMV in vivo protective effect; parameters: species or system tobacco mosaic virus (host Nicotiana tabacum L.cv.Xanthi NN)
[3] = tested on: Colletotrichum orbiculare; assay: Fungicidal (bactericidal) activity in vitro, PDA colony diameter; type: cell-based; conditions: 50 mg/kg
Rhizoctonia cereali = assay: as above; type: cell-based; conditions: 50 mg/kg
Botrytis cinerea = assay: as above; type: cell-based; conditions: 50 mg/kg
Cercospora arachidicola = assay: as above; type: cell-based; conditions: 50 mg/kg
[4] = tested on: tobacco mosaic virus (TMV); assay: Anti-TMV in vivo therapeutic effect; parameters: species or system tobacco mosaic virus (host Nicotiana tabacum L.cv.Xanthi NN)
[5] = tested on: tobacco mosaic virus (TMV); assay: Anti-TMV in vivo inactivation; parameters: species or system tobacco mosaic virus (host Nicotiana tabacum L.cv.Xanthi NN)
Rhizoctonia solani = assay: Fungicidal (bactericidal) activity in vitro, PDA colony diameter; type: cell-based; conditions: 50 mg/kg
Fusarium graminearumt = assay: microbe, parasite or virus in culture; type: cell-based; conditions: 50 mg/kg
corn borers = conditions: concentration 600 mg/kg
mosquito larvae = assay: whole plant or invertebrate; conditions: 24 h
Protocol: Experimental method of mosquito larvae: culex pipiens pallens, a normal colony raised indoors. Weigh about 5 mg of the compound for test, put it in a penicillin vial, add 5 mL of acetone (or an appropriate solvent), and shake and dissolve it to obtain a 1000 ppm mother solution. Pipette 0.5 mL of the mother solution, add it to a 100 mL beaker filled with 89.9 mL of water, select 10 mosquito larvae at the beginning of the fourth instar, and pour them to a beaker together with 10 mL of feeding solution. The concentration of the drug solution is 5 ppm. […] Use an aqueous solution containing 0.5 mL of test solvent as a blank.

Macrophoma kawatsukai = assay: Fungicidal (bactericidal) activity in vitro, PDA colony diameter; type: cell-based; conditions: 50 mg/kg
cotton bollworms = assay: whole plant or invertebrate; conditions: concentration 600 mg/kg
Protocol: Experimental method of cotton bollworms: feed and drug mixing method: measure 3 mL of prepared solution and add it to about 27 g of newly prepared feed, thereby obtaining needed concentration through dilution by 10 times.

Alternaria solani = assay: Fungicidal (bactericidal) activity in vitro, PDA colony diameter; type: cell-based; conditions: 50 mg/kg
potato late blight = assay: microbe, parasite or virus in culture; type: cell-based

| SMILES | Armyworm Mortality (%) (armyworms) | Bactericidal activity (%) Sclerotinia scleotiorum (Sclerotinia scleotiorum) [%] | Bactericidal activity (%) Phytophthora capsici (Phytophthora capsici) [%] | Relative inhibition rate (%) In vitro activity ([1]; treatment dose 100 μg/mL) [%] | Relative inhibition rate (%) In vitro activity ([1]; treatment dose 500 μg/mL) [%] | Bactericidal activity (%) Cucumber fusarium wilt (cucumber fusarium wilt) [%] | Bactericidal activity (%) Fusarium fujikuroi (Fusarium fujikuroi) [%] | Bactericidal activity (%) Bipolaria maydis (Bipolaria maydis) [%] | Relative inhibition rate (%) In vivo protection ([2]; treatment dose 100 μg/mL) [%] | Relative inhibition rate (%) In vivo protection ([2]; treatment dose 500 μg/mL) [%] | Bactericidal activity (%) Colletotrichum orbiculare [3] [%] | Bactericidal activity (%) Rhizoctonia cereali (Rhizoctonia cereali) [%] | Bactericidal activity (%) Botrytis cinerea (Botrytis cinerea) [%] | Bactericidal activity (%) Cercospora arachidicola (Cercospora arachidicola) [%] | Relative inhibition rate (%) In vivo therapy ([4]; treatment dose 100 μg/mL) [%] | Relative inhibition rate (%) In vivo therapy ([4]; treatment dose 500 μg/mL) [%] | Relative inhibition rate (%) In vivo inactivation ([5]; treatment dose 100 μg/mL) [%] | Relative inhibition rate (%) In vivo inactivation ([5]; treatment dose 500 μg/mL) [%] | Bactericidal activity (%) Rhizoctonia solani (Rhizoctonia solani) [%] | Bactericidal activity (%) Fusarium graminearumt (Fusarium graminearumt) [%] | also measured |
| --- | --- | --- | --- | --- | --- | --- | --- | --- | --- | --- | --- | --- | --- | --- | --- | --- | --- | --- | --- | --- | --- |
| CCCCOC(=O)[C@@H]1Cc2c([nH]c3ccccc23)[C@H](C)N1 [Ib-8, (1S, 3S)-1-methyl-2,3,4,9-tetrahydropyridino [3,4-b] indol-3-butyl formate] | 5 | 72.0 | 51.5 | 13.4 | 48.2 | 33.3 | 50.0 | 89.5 | 17.6 | 43.2 | 38.1 | 84.4 | 50.0 | 71.4 | 17.1 | 42.2 | 20.3 | 51.3 | 55.4 | 50.0 | Corn borer Mortality (%) (corn borers): 0%; Mosquito larvae Mortality (%) (mosquito larvae; concentration 10 mg/kg): 10%; Bactericidal activity (%) Macrophoma kawatsukai (Macrophoma kawatsukai): 64.7%; Cotton bollworm Mortality (%) (cotton bollworms): 20%; Bactericidal activity (%) Alternaria solani (Alternaria solani): 83.3%; Bactericidal activity (%) potato late blight (potato late blight): 35.0% |
| CCOC(=O)C1Cc2c([nH]c3ccccc23)CN1 (stereo not shown) [Ib-9, 2,3,4,9-tetrahydropyridino [3,4-b] indol-3-ethyl formate] | 15 | 19.6 | 15.6 | 12.8 | 44.5 | 19.2 | 14.3 | 22.7 | 17.2 | 40.4 | 42.9 | 44.7 | 12.1 | 84.6 | 14.3 | 42.7 | 16.9 | 41 | 35.5 | 35.7 | Corn borer Mortality (%) (corn borers): 10%; Mosquito larvae Mortality (%) (mosquito larvae; concentration 10 mg/kg): 35%; Bactericidal activity (%) Macrophoma kawatsukai (Macrophoma kawatsukai): 21.4%; Cotton bollworm Mortality (%) (cotton bollworms): 10%; Bactericidal activity (%) Alternaria solani (Alternaria solani): 26.3%; Bactericidal activity (%) potato late blight (potato late blight): 22.7% |
| CCOC(=O)[C@@H]1Cc2c([nH]c3ccccc23)[C@H](CC)N1 [Ib-10, (1S, 3S)-1-ethyl-2,3,4,9-tetrahydropyridino [3,4-b] indol-3-ethyl formate] | 30 | 56.0 | 45.5 | 0 | 34.1 | 23.8 | 35.7 | 31.6 | 10.7 | 36.6 | 42.9 | 65.6 | 40.9 | 21.4 | 11.4 | 38.1 | 12.6 | 46.4 | 21.4 | 35.7 | Corn borer Mortality (%) (corn borers): 25%; Mosquito larvae Mortality (%) (mosquito larvae; concentration 10 mg/kg): 60%; Bactericidal activity (%) Macrophoma kawatsukai (Macrophoma kawatsukai): 64.7%; Cotton bollworm Mortality (%) (cotton bollworms): 15%; Bactericidal activity (%) Alternaria solani (Alternaria solani): 55.6%; Bactericidal activity (%) potato late blight (potato late blight): 30.0% |
| CCOC(=O)[C@H]1Cc2c([nH]c3ccccc23)[C@@H](C)N1 [Ib-12, (1R,3R)-1-methyl-2,3,4,9-tetrahydropyridino [3,4-b] indol-3-ethyl formate] | 50 | 17.7 | 9.4 | 12.6 | 40 | 19.2 | 28.6 | 18.2 | 17 | 41.9 | 25.0 | 39.5 | 24.2 | 92.3 | 12.9 | 38.6 | 16.7 | 35.8 | 42.1 | 26.2 | Corn borer Mortality (%) (corn borers): 50%; Mosquito larvae Mortality (%) (mosquito larvae; concentration 5 mg/kg): 40%; Mosquito larvae Mortality (%) (mosquito larvae; concentration 10 mg/kg): 100%; Bactericidal activity (%) Macrophoma kawatsukai (Macrophoma kawatsukai): 54.8%; Cotton bollworm Mortality (%) (cotton bollworms): 30%; Bactericidal activity (%) Alternaria solani (Alternaria solani): 26.3%; Bactericidal activity (%) potato late blight (potato late blight): 18.2% |
| CCOC(=O)C1Cc2c([nH]c3ccccc23)C(C)=N1 (stereo not shown) [Ib-14, 1-methyl-4,9-dihydro-pyridino [3,4-b] indol-3-ethyl formate] | 10 | 29.4 | 15.6 | 11.1 | 42.6 | 23.1 | 28.6 | 36.4 | 21.4 | 47 | 42.9 | 65.8 | 36.4 | 69.2 | 15.9 | 45.8 | 0 | 35.7 | 59.2 | 42.9 | Corn borer Mortality (%) (corn borers): 10%; Mosquito larvae Mortality (%) (mosquito larvae; concentration 10 mg/kg): 30%; Bactericidal activity (%) Macrophoma kawatsukai (Macrophoma kawatsukai): 33.3%; Cotton bollworm Mortality (%) (cotton bollworms): 30%; Bactericidal activity (%) Alternaria solani (Alternaria solani): 42.1%; Bactericidal activity (%) potato late blight (potato late blight; 50 mg/kg): 36.4% |
| C[C@@H]1N[C@H](C(=O)NCCO)Cc2c1[nH]c1ccccc21 [Ib-18, (1S, 3S)—N-(2-ethoxyl)-1-methyl-2,3,4,9-tetrahydro-pyridino [3,4-b] indol-3-formamide] | 5 | 68.0 | 36.4 | 5.4 | 37.6 | 23.8 | 35.7 | 26.3 | 12.1 | 41 | 23.8 | 53.1 | 27.3 | 21.4 | 18.6 | 40 | 10 | 41.5 | 35.7 | 28.6 | Corn borer Mortality (%) (corn borers): 5%; Mosquito larvae Mortality (%) (mosquito larvae; concentration 10 mg/kg): 10%; Bactericidal activity (%) Macrophoma kawatsukai (Macrophoma kawatsukai): 70.6%; Cotton bollworm Mortality (%) (cotton bollworms): 5%; Bactericidal activity (%) Alternaria solani (Alternaria solani): 27.8%; Bactericidal activity (%) potato late blight (potato late blight): 5.0% |
